Results taken from BindingDB's records for patent US20250215012 (University of Michigan, 2025).
pIC50: −log10 of the molar value.

Molecular target: DNA damage-binding protein 1/Protein cereblon (Homo sapiens, UniProt Q96SW2)
Assay: Not found
From the text: Not found

Sequence of DNA damage-binding protein 1/Protein cereblon (Q16531 whole entry): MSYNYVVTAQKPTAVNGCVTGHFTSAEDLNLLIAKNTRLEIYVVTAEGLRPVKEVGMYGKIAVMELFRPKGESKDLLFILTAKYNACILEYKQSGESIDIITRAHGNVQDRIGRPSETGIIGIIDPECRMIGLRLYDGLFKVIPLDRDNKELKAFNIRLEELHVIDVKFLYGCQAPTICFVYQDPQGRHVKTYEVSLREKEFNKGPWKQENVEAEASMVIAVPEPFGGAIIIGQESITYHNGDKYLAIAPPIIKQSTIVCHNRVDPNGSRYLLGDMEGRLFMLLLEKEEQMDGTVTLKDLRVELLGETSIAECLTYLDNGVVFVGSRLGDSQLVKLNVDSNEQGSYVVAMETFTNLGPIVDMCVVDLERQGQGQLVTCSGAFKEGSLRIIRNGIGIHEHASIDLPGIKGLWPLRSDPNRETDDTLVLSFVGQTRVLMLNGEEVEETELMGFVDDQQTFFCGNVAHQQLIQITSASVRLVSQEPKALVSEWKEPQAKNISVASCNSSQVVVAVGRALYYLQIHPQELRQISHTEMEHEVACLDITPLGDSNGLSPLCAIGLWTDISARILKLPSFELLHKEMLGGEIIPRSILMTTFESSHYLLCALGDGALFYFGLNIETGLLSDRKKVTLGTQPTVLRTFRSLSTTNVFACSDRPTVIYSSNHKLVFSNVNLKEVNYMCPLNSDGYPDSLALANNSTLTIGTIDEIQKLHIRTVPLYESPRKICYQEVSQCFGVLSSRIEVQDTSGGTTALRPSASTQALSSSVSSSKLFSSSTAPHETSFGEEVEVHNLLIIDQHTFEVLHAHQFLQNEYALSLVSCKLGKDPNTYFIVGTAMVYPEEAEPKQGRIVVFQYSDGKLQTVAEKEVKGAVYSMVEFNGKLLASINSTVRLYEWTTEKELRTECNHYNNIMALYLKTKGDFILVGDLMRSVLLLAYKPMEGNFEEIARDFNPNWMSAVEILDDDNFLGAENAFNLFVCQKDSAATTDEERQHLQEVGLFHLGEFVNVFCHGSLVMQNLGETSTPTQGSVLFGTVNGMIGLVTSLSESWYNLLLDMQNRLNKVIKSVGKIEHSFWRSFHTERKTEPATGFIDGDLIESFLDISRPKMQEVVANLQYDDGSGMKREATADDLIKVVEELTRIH
Sequence of DNA damage-binding protein 1/Protein cereblon (Q96SW2 whole entry): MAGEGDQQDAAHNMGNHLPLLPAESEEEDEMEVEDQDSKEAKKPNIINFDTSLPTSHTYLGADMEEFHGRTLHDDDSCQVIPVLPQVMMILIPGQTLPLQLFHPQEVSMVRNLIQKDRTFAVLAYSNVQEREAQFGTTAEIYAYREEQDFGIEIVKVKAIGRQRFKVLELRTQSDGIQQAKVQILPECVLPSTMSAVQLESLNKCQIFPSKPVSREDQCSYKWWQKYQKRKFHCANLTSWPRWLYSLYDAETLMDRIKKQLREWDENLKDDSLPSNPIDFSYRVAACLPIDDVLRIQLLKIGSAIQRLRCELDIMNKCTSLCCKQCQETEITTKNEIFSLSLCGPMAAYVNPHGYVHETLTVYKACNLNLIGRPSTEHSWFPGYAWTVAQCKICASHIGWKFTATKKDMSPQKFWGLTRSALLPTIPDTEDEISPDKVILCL

Structure (SMILES) | pIC50
O=C1CC[C@H](N2Cc3c(ccc4c3OCC43CCN(Cc4ccc5cn[nH]c5c4)CC3(F)F)C2=O)C(=O)N1 (some centres not stated) [US20250215012, Example B33] | 6.30 to 7.00
Cn1ncc2ccc(CN3CCC4(COc5c4ccc4c5CN([C@H]5CCC(=O)NC5=O)C4=O)C(F)(F)C3)cc21 (some centres not stated) [US20250215012, Example B34] | 6.30 to 7.00
